Like-named read-outs stand apart in the source and are kept apart here.
Key:
[1] = 168 h
Protocol: (§1) The MWF samples dosed with biocide were analyzed for active level by high pressure liquid chromatography (HPLC) at time 0. The samples were then vortexed and split into a sample that was aged at room temperature and a sample that was aged at 40° C. Each week an aliquot of the aged samples was evaluated by HPLC for the level of active remaining. Samples where no active was found for two consecutive weeks were no longer analyzed.

[2] = Stability of MIT: 25% amine and 10 ppm MIT (HPLC); settings: extremely high ratios of amine:isothiazolone (25% amine, 10 ppm MIT); room temperature and 40° C.
Protocol: as §1

| SMILES | remaining active ingredient MIT (336 h) [wt %] | remaining active ingredient MIT (504 h) [wt %] | remaining active ingredient MIT [1] [wt %] | stability of MIT compared with other amines [2] |
| --- | --- | --- | --- | --- |
| CC(O)CN(CC(C)O)CC(C)O (stereo not drawn) [Amine G, triisopropanol amine] | 110 | 108 |  |  |
| NCCO [Amine F, 2-aminoethanol, reference compound] | 108 |  | 0 |  |
| CCC(O)CN(CCO)CCO (stereo not drawn) [Amine A, 1-[bis(hydroxylethyl)amino]-2-butanol] |  |  |  | much better stability |
| CCC(O)CN(CCO)CC(O)CC (stereo not drawn) [Amine D, N,N-bis(2-hydroxybutyl)-2-amino ethanol] |  |  |  | much better stability |
